From PMC10487708, “Chlorin E6-Curcumin-Mediated Photodynamic Therapy Promotes an Anti-Photoaging Effect in UVB-Irradiated Fibroblasts” (International Journal of Molecular Sciences, 2023)

Assay: Ex vivo fluorescence imaging and biodistribution in ICR mice
Details: 2.5 mg/kg IV, 3 h post-injection
Procedure: To confirm the organ-specific signaling intensities of different Ce6-curcumin derivatives, we measured ex-vivo FLI in different organs of ICR mice after 3 h of intravenous drug administration. The drug interval time of 3 h before light irradiation in PDT for Ce6-curcumin derivatives can be explained by the pharmacokinetics and imaging study of Ce6 provided in Figures S1 and S2. Three hours after IV injection of 2.5 mg/kg of Ce6- hexane-curcumin, Ce6-propane-curcumin, and Ce6-diPEG-curcumin, ex-vivo images were obtained. […] Furthermore, the fluorescence intensity of Ce6-curcumin derivatives was highest in organs with a larger blood supply, including the liver and lungs.
(B) Biodistribution of the three Ce6-curcumin derivatives in the organ lysates after 3 h post-injection. The quantitation of fluorescence signals of Ce6 derivatives has been represented as a bar. Data were represented as mean ± SD from at least three independent experiments and were analyzed by one-way ANOVA with Tukey’s post hoc test: * p < 0.01, compared with vehicle-treated control of the spleen, ^# p < 0.01, compared with vehicle-treated control of the lungs, ^& p < 0.01, compared with vehicle-treated control of the liver.
Biodistribution analysis for Ce6 and Ce6-curcumin derivatives was calculated by measuring tissue fluorescence. […] The fluorescence intensity was normalized to the tissue weight.

With `C=Cc1c(C)c2cc3nc(c(CC(=O)OC)c4[nH]c(cc5nc(cc1[nH]2)C(C)=C5CC)c(C)c4C(=O)NCCCOCCOCCOCCCNC(=O)CCCC(=O)Oc1ccc(/C=C/C(=O)CC(=O)/C=C/c2ccc(O)c(OC)c2)cc1OC)C(CCC(=O)OC)C3C` (stereo not shown) [Ce6-diPEG-curcumin] as the compound, how does the “ex vivo fluorescence signal in organs” value read?
Its value is “highest fluorescence”.
